For 13 molecules, MIC results are on record in patent publication EP0115820A2, “Cephalosporin derivatives and process for their preparation” (Kaken Pharmaceutical Co., Ltd., priority 1983, dated 1984).

Holding throughout (test): Minimum inhibitory concentration (MIC)
Holding throughout (assay type): cell-based

In assay [1] the test system is Pseudomonas aeruginosa K-13. The text has this:
(§1) The cephalosporin derivatives of the present invention are novel substances, and the antimicrobial activities of their sodium salts are shown by the minimum inhibitory concentrations (MIC, µg/ml) in Table 1, as compared with a typical known cephalosporin compound.

Assay [2] relates to Pseudomonas aeruginosa E-2.
Excerpt: as §1

The subject of assay [3] is Pseudomonas aeruginosa Y-1.
Excerpt: as §1

Assay [4] concerns Klebsiella pneumoniae No. 42.
Excerpt: as §1

Assay [5] concerns Serratia marcescens No. 16-2.
Excerpt: as §1

Assay [6] has as its system Staphylococcus aureus 209 P JC-1.
Excerpt: as §1

The test system of assay [7] is Escherichia coli NIHJ JC-2.
Excerpt: as §1

Assay [8] deals with Proteus vulgaris GN-76.
Excerpt: as §1

Setting [9] is: K13, Pseudomonas aeruginosa K-13, bacterial suspension 10^6 cells/ml, sodium salts tested, read-out: Minimum inhibitory concentration.
Setting [10] is: E2, Pseudomonas aeruginosa E-2, bacterial suspension 10^6 cells/ml, sodium salts tested, read-out: Minimum inhibitory concentration.
Where [11] appears, read: Y1, Pseudomonas aeruginosa Y-1, bacterial suspension 10^6 cells/ml, sodium salts tested, read-out: Minimum inhibitory concentration.
The mark [12] stands for this setting: Klebsiella pneumoniae No. 42, bacterial suspension 10^6 cells/ml, sodium salts tested, read-out: Minimum inhibitory concentration.
Setting [13] is: NO.162, Serratia marcescens No. 16-2, bacterial suspension 10^6 cells/ml, sodium salts tested, read-out: Minimum inhibitory concentration.
[14] abbreviates: 209PJC1, Staphylococcus aureus 209 P JC-1, bacterial suspension 10^6 cells/ml, sodium salts tested, read-out: Minimum inhibitory concentration.
[15] abbreviates: NIHJJC2, Escherichia coli NIHJ JC-2, bacterial suspension 10^6 cells/ml, sodium salts tested, read-out: Minimum inhibitory concentration.
Setting [16] is: GN76, Proteus vulgaris GN-76, bacterial suspension 10^6 cells/ml, sodium salts tested, read-out: Minimum inhibitory concentration.

Values after ≈ are worked out from the molar mass of the structure shown. Like-named read-outs stand apart in the source and are kept apart here.

With `CC(=O)OCC1=C(C(=O)O)N2C(=O)[C@@H](NC(=O)C(NC(=O)c3ccccc3OC(C)=O)c3csc(N)n3)[C@H]2SC1` (mixture of isomers) [Example 15, 7β-[DL-2-(2-acetoxybenzoylamino)-2-(2-aminothiazol-4-yl)acetamido]cephalosporic acid], the MIC came to 25 µg/mL in assay [1] (setting [9]); 25 µg/mL in assay [2] (setting [10]); 50 µg/mL in assay [3] (setting [11]); 6.25 µg/mL in assay [4] (setting [12]); 200 µg/mL in assay [5] (setting [13]); 0.39 µg/mL in assay [6] (setting [14]). In addition, the values for the MIC in assay [7] (setting [15]) and in assay [8] (setting [16]) were 1.56 µg/mL and 6.25 µg/mL, respectively.
Turning to `CC(=O)OCC1=C(C(=O)O)N2C(=O)[C@@H](NC(=O)C(NC(=O)c3ccc(O)c(O)c3)c3csc(N)n3)[C@H]2SC1` (mixture of isomers) [Example 20, 7β-[DL-2-(3,4-dihydroxybenzoylamino)-2-(2-aminothiazol-4-yl)acetamido]cephalosporic acid], the MIC worked out at 0.2 µg/mL in assay [1] (setting [9]); 0.1 µg/mL in assay [2] (setting [10]); 0.05 µg/mL in assay [3] (setting [11]); 0.05 µg/mL in assay [4] (setting [12]); 6.25 µg/mL in assay [5] (setting [13]); 0.39 µg/mL in assay [6] (setting [14]). In addition, the MIC in assay [7] (setting [15]) is 0.39 µg/mL; in assay [8] (setting [16]) it was 0.2 µg/mL.
For the molecule `CC(=O)OCC1=C(C(=O)O)N2C(=O)[C@@H](NC(=O)C(NC(=O)c3cccc(O)c3O)c3csc(N)n3)[C@H]2SC1` (mixture of isomers) [Example 21, 7β-[DL-2-(2,3-dihydroxybenzoylamino)-2-(2-aminothiazol-4-yl)acetamido]cephalosporic acid], the MIC in assay [1] (setting [9]) was 0.78 µg/mL; in assay [2] (setting [10]), 0.39 µg/mL; in assay [3] (setting [11]), 3.12 µg/mL; in assay [4] (setting [12]), 0.39 µg/mL; in assay [5] (setting [13]), greater than 200 µg/mL; in assay [6] (setting [14]), 3.12 µg/mL. For the same molecule, the MIC in assay [7] (setting [15]) and in assay [8] (setting [16]) was 1.56 µg/mL throughout.
As to `CC(=O)OCC1=C(C(=O)O)N2C(=O)[C@@H](NC(=O)C(NC(=O)c3cccc(OC(C)=O)c3OC(C)=O)c3csc(N)n3)[C@H]2SC1` (mixture of isomers) [Example 14, 7β-[DL-2-(2,3-diacetoxybenzoylamino)-2-(2-aminothiazol-4-yl)acetamido]cephalosporic acid], the MIC in assay [1] (setting [9]) was determined as 0.39 µg/mL; in assay [2] (setting [10]), 0.39 µg/mL; in assay [3] (setting [11]), 0.2 µg/mL; in assay [4] (setting [12]), 0.39 µg/mL; in assay [5] (setting [13]) it was 12.5 µg/mL; in assay [6] (setting [14]), 3.12 µg/mL. Besides, the figures for the MIC in assay [7] (setting [15]) and in assay [8] (setting [16]) were 1.56 µg/mL and 0.78 µg/mL, respectively.
With `CO[C@@]1(NC(=O)C(NC(=O)c2cccc(OC(C)=O)c2OC(C)=O)c2csc(N)n2)C(=O)N2C(C(=O)O)=C(COC(C)=O)CS[C@@H]21` (mixture of isomers) [Example 8, 7α-methoxy-7β-(DL-2-(2,3-diacetoxy-benzoylamino)-2-(2-aminothiazol-4-yl)acetamido]-cephalosporic acid], the MIC in assay [1] (setting [9]) came to 6.25 µg/mL; in assay [2] (setting [10]) it was 1.56 µg/mL; in assay [3] (setting [11]), 3.12 µg/mL; in assay [4] (setting [12]) it was 0.78 µg/mL; in assay [5] (setting [13]), 3.12 µg/mL; in assay [6] (setting [14]), 6.25 µg/mL. Also, the MIC in assay [7] (setting [15]) stood at 25 µg/mL; in assay [8] (setting [16]), 3.12 µg/mL.
Take `CO[C@@]1(NC(=O)C(NC(=O)c2ccc(OC(C)=O)c(OC(C)=O)c2)c2csc(N)n2)C(=O)N2C(C(=O)O)=C(CSc3nnnn3C)CS[C@@H]21` (mixture of isomers) [Example 10, 7α-methoxy-7β-[DL-2-(3,4-diacetoxy-benzoylamino)-2-(2-aminothiazol-4-yl)acetamidol-3-(1-methyl-lH-tetrazol-5-yl-thiomethyl)-3-cephem-4-carboxylic acid]: the MIC in assay [1] (setting [9]) worked out at 0.2 µg/mL; in assay [2] (setting [10]) it was 0.2 µg/mL; in assay [3] (setting [11]), 0.2 µg/mL; in assay [4] (setting [12]), 0.2 µg/mL; in assay [5] (setting [13]), 3.12 µg/mL; in assay [6] (setting [14]), 0.78 µg/mL. Besides, the MIC worked out at 6.25 µg/mL in assay [7] (setting [15]) and 1.56 µg/mL in assay [8] (setting [16]).
For the molecule `CCOC(=O)Oc1ccc(C(=O)NC(C(=O)N[C@@H]2C(=O)N3C(C(=O)O)=C(CSc4nnnn4C)CS[C@H]23)c2csc(N)n2)cc1OC(=O)OCC` (mixture of isomers) [Example 5, 7β-[DL-2-(3,4-diethoxycarbonyloxy-benzoylamino)-2-(2-aminothiazol-4-yl)acetamido]-3-(l-methyl-lH-tetrazol-5-yl-thiomethyl)-3-cephem-4-carboxylic acid], the MIC in assay [1] (setting [9]) was found to be 0.2 µg/mL; in assay [2] (setting [10]) it was 0.39 µg/mL; in assay [3] (setting [11]), 0.1 µg/mL; in assay [4] (setting [12]), 0.2 µg/mL; in assay [5] (setting [13]), 50 µg/mL; in assay [6] (setting [14]), 0.39 µg/mL. In addition, the MIC in assay [7] (setting [15]) was 0.78 µg/mL; in assay [8] (setting [16]), 6.25 µg/mL.
With `CC(=O)OCC1=C(C(=O)O)N2C(=O)[C@@H](NC(=O)C(NC(=O)c3cccc(OC(C)=O)c3)c3csc(N)n3)[C@H]2SC1` (mixture of isomers) [Example 16, 7β-[DL-2-(3-acetoxybenzoylamino)-2-(2-aminothiazol-4-yl)acetamidolcephalosporic acid], the MIC in assay [1] (setting [9]) is 200 µg/mL; in assay [2] (setting [10]), 200 µg/mL; in assay [3] (setting [11]), greater than 200 µg/mL; in assay [4] (setting [12]), 3.12 µg/mL; in assay [5] (setting [13]), greater than 200 µg/mL; in assay [6] (setting [14]), 0.39 µg/mL. In addition, the MIC in assay [7] (setting [15]) turned out to be 1.56 µg/mL; in assay [8] (setting [16]) it was 6.25 µg/mL.
On to `CC(=O)Oc1ccc(C(=O)NC(C(=O)N[C@@H]2C(=O)N3C(C(=O)O)=C(CSc4nnnn4C)CS[C@H]23)c2csc(N)n2)cc1OC(C)=O` (mixture of isomers) [Example 1, 7β-[DL-2-(3,4-diacetoxybenzoylamino)-2-(2-aminothiazol-4-yl)acetamido]-3-(1-methyl-1H-tetrazol-5-yl-thiomethyl)-3-cephem-4-carboxylic acid], for which the MIC came to 0.2 µg/mL in assay [1] (setting [9]); 0.2 µg/mL in assay [2] (setting [10]); 0.05 µg/mL in assay [3] (setting [11]); 0.1 µg/mL in assay [4] (setting [12]); 6.25 µg/mL in assay [5] (setting [13]); 0.78 µg/mL in assay [6] (setting [14]). Besides, the values for the MIC in assay [7] (setting [15]) and in assay [8] (setting [16]) were 0.2 µg/mL and 0.39 µg/mL, respectively.
With `CC(=O)OCC1=C(C(=O)O)N2C(=O)[C@@H](NC(=O)C(NC(=O)c3ccc(O)cc3)c3csc(N)n3)[C@H]2SC1` (mixture of isomers) [Example 24, 7β-[DL-2-(4-hydroxybenzoylamino)-2-(2-aminothiazol-4-yl)acetamido]cephalosporic acid], the MIC in assay [1] (setting [9]) was 25 µg/mL; in assay [2] (setting [10]), 25 µg/mL; in assay [3] (setting [11]) it was 50 µg/mL; in assay [4] (setting [12]), 6.25 µg/mL; in assay [5] (setting [13]), greater than 200 µg/mL; in assay [6] (setting [14]), 0.39 µg/mL. In addition, the MIC in assay [7] (setting [15]) came to 3.12 µg/mL; in assay [8] (setting [16]), 25 µg/mL.
As to `CC(=O)OCC1=C(C(=O)O)N2C(=O)[C@@H](NC(=O)C(NC(=O)c3ccccc3O)c3csc(N)n3)[C@H]2SC1` (mixture of isomers) [Example 22, 7β-[DL-2-(2-hydroxybenzoylamino)-2-(2-aminothiazol-4-yl)acetamido]cephalosporic acid], the MIC was 25 µg/mL in assay [1] (setting [9]); 50 µg/mL in assay [2] (setting [10]); 100 µg/mL in assay [3] (setting [11]); 3.12 µg/mL in assay [4] (setting [12]); greater than 200 µg/mL in assay [5] (setting [13]); 0.39 µg/mL in assay [6] (setting [14]). Besides, the MIC came to 3.12 µg/mL in assay [7] (setting [15]) and 6.25 µg/mL in assay [8] (setting [16]).
`CO[C@@]1(NC(=O)CSCC#N)C(=O)N2C(C(=O)O)=C(CSc3nnnn3C)CS[C@@H]21` [Cefmetazole, reference compound]: the MIC was 3200 µg/mL (≈ 6790 µM) in assay [1] (Pseudomonas aeruginosa, K13, read-out: Minimum inhibitory concentration); 3200 µg/mL (≈ 6790 µM) in assay [2] (Pseudomonas aeruginosa, E2, read-out: Minimum inhibitory concentration); 3200 µg/mL (≈ 6790 µM) in assay [3] (Pseudomonas aeruginosa, Y1, read-out: Minimum inhibitory concentration); 1.56 µg/mL (≈ 3.31 µM) in assay [4] (Klebsiella pneumoniae, NO.42, read-out: Minimum inhibitory concentration); greater than 50 µg/mL in assay [5] (Serratia marcescens, NO.162, read-out: Minimum inhibitory concentration); 0.39 µg/mL (≈ 0.827 µM) in assay [6] (Staphylococcus aureus, 209PJC1, read-out: Minimum inhibitory concentration). The MIC in assay [7] (Escherichia coli, NIHJJC2, read-out: Minimum inhibitory concentration) turned out to be 0.78 µg/mL (≈ 1.65 µM); in assay [8] (Proteus vulgaris, GN76, read-out: Minimum inhibitory concentration) it was 3.12 µg/mL (≈ 6.62 µM).
In the case of `CC(=O)OCC1=C(C(=O)O)N2C(=O)[C@@H](NC(=O)C(NC(=O)c3ccc(OC(C)=O)cc3)c3csc(N)n3)[C@H]2SC1` (mixture of isomers) [Example 17, 7β-[DL-2-(4-acetoxybenzoylamino)-2-(2-aminothiazol-4-yl)acetamido]cephalosporic acid], the MIC is 100 µg/mL in assay [1] (setting [9]); 100 µg/mL in assay [2] (setting [10]); 200 µg/mL in assay [3] (setting [11]); 3.12 µg/mL in assay [4] (setting [12]); greater than 200 µg/mL in assay [5] (setting [13]); 0.2 µg/mL in assay [6] (setting [14]). The MIC in assay [7] (setting [15]) was 0.78 µg/mL; in assay [8] (setting [16]) it was 6.25 µg/mL.
